Results as given in PubChem BioAssay (NCI).
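Tested at 5 concentrations; 48 h exposure; 96-well plates; endpoints linearly interpolated, else capped at highest concentration. Abbreviation: GI50, concentration required for 50% inhibition of growth. At the TGI there is no net growth.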

Assays:
Assay in all cases: inhibition of tumour cell growth, NCI panel, 48 h
[1] = system: 786-0 renal
[2] = system: A498 renal
[3] = system: A549 NSCLC
[4] = system: ACHN renal
[5] = system: BT-549 breast
[6] = system: CAKI-1 renal
[7] = system: COLO 205 colon
[8] = system: DU-145 prostate
[9] = system: EKVX NSCLC
[10] = system: HCC-2998 colon
[11] = system: HCT-116 colon
[12] = system: HCT-15 colon
[13] = system: HL-60(TB) leukemia
[14] = system: HOP-62 NSCLC
[15] = system: HOP-92 NSCLC
[16] = system: HS 578T breast
[17] = system: HT29 colon
[18] = system: IGROV1 ovarian
[19] = system: K-562 leukemia
[20] = system: KM12 colon
[21] = system: LOX IMVI melanoma
[22] = system: M14 melanoma
[23] = system: MALME-3M melanoma
[24] = system: MCF7 breast
[25] = system: MDA-MB-231 breast
[26] = system: MOLT-4 leukemia
[27] = system: NCI-H226 lung
[28] = system: NCI-H23 lung
[29] = system: NCI-H460 lung
[30] = system: NCI-H522 lung
[31] = system: NCI/ADR-RES ovarian
[32] = system: OVCAR-3 ovarian
[33] = system: OVCAR-4 ovarian
[34] = system: OVCAR-5 ovarian
[35] = system: OVCAR-8 ovarian
[36] = system: PC-3 prostate
[37] = system: RXF 393 renal
[38] = system: SF-268 CNS
[39] = system: SF-295 CNS
[40] = system: SF-539 CNS
[41] = system: SK-MEL-2 melanoma
[42] = system: SK-MEL-28 melanoma
[43] = system: SK-MEL-5 melanoma
[44] = system: SK-OV-3 ovarian
[45] = system: SN12C renal
[46] = system: SNB-19 CNS
[47] = system: SNB-75 CNS
[48] = system: SW-620 colon
[49] = system: T-47D breast
[50] = system: TK-10 renal
[51] = system: U251 CNS
[52] = system: UACC-257 melanoma
[53] = system: UACC-62 melanoma
[54] = system: UO-31 renal

O=C(Nc1ccncc1)C(=O)c1cn(S(=O)(=O)c2cccc(Cl)c2)c2ccccc12
GI50 [1]: 7.94 µM
TGI [1]: 43.6 µM
GI50 [2]: 25.4 µM
TGI [2]: > 100 µM
GI50 [3]: 22.4 µM
TGI [3]: > 100 µM
GI50 [4]: 7.58 µM
TGI [4]: 57.1 µM
GI50 [5]: 5.85 µM
TGI [5]: 38.3 µM
GI50 [6]: 3.38 µM
TGI [6]: 39.9 µM
GI50 [7]: 24.8 µM
TGI [7]: 70.3 µM
GI50 [8]: 10.9 µM
TGI [8]: > 100 µM
GI50 [9]: 5.16 µM
TGI [9]: > 100 µM
GI50 [10]: 13.9 µM
TGI [10]: > 100 µM
GI50 [11]: 3.1 µM
TGI [11]: 86.8 µM
GI50 [12]: 3.24 µM
TGI [12]: > 100 µM
GI50 [13]: 3.94 µM
TGI [13]: > 100 µM
GI50 [14]: 7.26 µM
TGI [14]: 48.1 µM
GI50 [15]: 3.31 µM
TGI [15]: 23.1 µM
GI50 [16]: 77.1 µM
TGI [16]: > 100 µM
GI50 [17]: 3.62 µM
TGI [17]: > 100 µM
GI50 [18]: 24.1 µM
TGI [18]: > 100 µM
GI50 [19]: 2.5 µM
TGI [19]: > 100 µM
GI50 [20]: 3.96 µM
TGI [20]: > 100 µM
GI50 [21]: 4.72 µM
TGI [21]: > 100 µM
GI50 [22]: 4.09 µM
TGI [22]: 32.6 µM
GI50 [23]: 18.7 µM
TGI [23]: > 100 µM
GI50 [24]: 3.63 µM
TGI [24]: > 100 µM
GI50 [25]: 10.6 µM
TGI [25]: 43.9 µM
GI50 [26]: 5.55 µM
TGI [26]: > 100 µM
GI50 [27]: 13.6 µM
TGI [27]: > 100 µM
GI50 [28]: 4.65 µM
TGI [28]: > 100 µM
GI50 [29]: 20 µM
TGI [29]: > 100 µM
GI50 [30]: 2.41 µM
TGI [30]: 16.9 µM
GI50 [31]: 2.86 µM
TGI [31]: > 100 µM
GI50 [32]: 4.12 µM
TGI [32]: 23.4 µM
GI50 [33]: 7.51 µM
TGI [33]: > 100 µM
GI50 [34]: 11.5 µM
TGI [34]: > 100 µM
GI50 [35]: 7.98 µM
TGI [35]: > 100 µM
GI50 [36]: 11.8 µM
TGI [36]: > 100 µM
GI50 [37]: 4.34 µM
TGI [37]: 21.2 µM
GI50 [38]: 8.36 µM
TGI [38]: > 100 µM
GI50 [39]: 2.92 µM
TGI [39]: 37.1 µM
GI50 [40]: 4.61 µM
TGI [40]: 43.9 µM
GI50 [41]: 11 µM
TGI [41]: > 100 µM
GI50 [42]: 10.2 µM
TGI [42]: 60.1 µM
GI50 [43]: 3.61 µM
TGI [43]: 39.5 µM
GI50 [44]: 30.2 µM
TGI [44]: > 100 µM
GI50 [45]: 13 µM
TGI [45]: > 100 µM
GI50 [46]: 27.5 µM
TGI [46]: > 100 µM
GI50 [47]: 5.16 µM
TGI [47]: 23.2 µM
GI50 [48]: 4.74 µM
TGI [48]: > 100 µM
GI50 [49]: 9.08 µM
TGI [49]: > 100 µM
GI50 [50]: 23.5 µM
TGI [50]: 75.9 µM
GI50 [51]: 5.78 µM
TGI [51]: > 100 µM
GI50 [52]: 24.7 µM
TGI [52]: > 100 µM
GI50 [53]: 5.81 µM
TGI [53]: > 100 µM
GI50 [54]: 11.7 µM
TGI [54]: > 100 µM
